Target: LTB4 receptor (Homo sapiens, UniProt Q15722)
Assay: [3H]LTB4 competition radioligand binding on HEK293 cells
Type: cell-based

LTB4 receptor, sequence (Q15722 whole entry): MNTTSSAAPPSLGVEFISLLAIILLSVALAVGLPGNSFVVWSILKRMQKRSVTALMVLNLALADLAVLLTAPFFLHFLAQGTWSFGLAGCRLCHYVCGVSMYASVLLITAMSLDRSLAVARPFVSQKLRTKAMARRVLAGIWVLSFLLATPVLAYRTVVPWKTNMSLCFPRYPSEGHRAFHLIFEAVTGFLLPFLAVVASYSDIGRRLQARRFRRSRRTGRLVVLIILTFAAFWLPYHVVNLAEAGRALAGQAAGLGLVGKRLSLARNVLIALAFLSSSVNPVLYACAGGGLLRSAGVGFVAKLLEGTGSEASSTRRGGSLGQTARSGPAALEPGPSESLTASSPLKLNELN

IC50: ~500 nM
Compound: CC/C=C\C/C=C\C[C@@H](O)/C=C/C=C/C=C\[C@@H](O)CCCC(=O)O [LTB5]

Source: publication PMC2195872 (The Journal of Experimental Medicine, 2000)
